{"source": "patent US20250235500A1", "about": "“NEW POLYPEPTIDE FOR PROMOTING TISSUE REPAIR, AND USE THEREOF” (Jinan University, priority 2021, published 2025)", "key": {"skin of subjects": {"test_system": "skin of subjects", "test": "Skin safety evaluation, closed patch test", "format": "in vivo, human", "details": "TRF7 2 mg/mL, 24 h patch, 20 subjects, observed at 0.5, 6, 12, 24 and 48 h", "method": "Subject population: A total of 20 subjects, comprising 10 females and 10 males aged 18-55, were selected. All subjects had healthy skin without any history of skin diseases or allergies, meeting the eligibility criteria for participation.\nTest method: Qualified patch testers were selected, and a closed patch test method was adopted. Approximately 0.020-0.025 mL of the polypeptide TRF7 (2 mg/mL) was applied to the patch testers, which were then affixed to the subjects' backs using specialized adhesive tape. […] The results of the skin reactions were recorded according to the grading standards stipulated in the Hygienic Standard for Cosmetics."}, "[1]": {"test_system": "stress-induced gastric ulcer in rats", "test": "Protective effect on stress-induced gastric ulcer in rats (restraint water-immersion)", "format": "in vivo, SD rats", "details": "sucralfate 1 g/kg intragastric, 7 days; Guth standard; model group 75.1 ± 13.8", "method": "Test Method: 20 male SD rats weighing 180-210 g (purchased from Guangdong Medical Experimental Animal Center) were randomly divided into five groups: a blank group, a model group, a sucralfate group (1 g/kg, a positive drug group), a low-dose TRF7 group (12.5 mg/kg), and a high-dose TRF7 group (50.0 mg/kg). The treatment groups were subjected to intragastric administration for 7 consecutive days. 24 h before modeling, the rats were subjected to […] but fed with water. […] The rats were cut open along greater curvatures of the stomach, rinsed with the normal saline, and then unfolded, damage to gastric mucosa was observed, and a gastric ulcer index was calculated. Calculating the ulcer index (UI) according to a Guth standard: punctate hemorrhage was scored as 1 point, linear hemorrhage with a length of <1 mm was scored as 2 points, linear hemorrhage with a length of 1-2 mm was scored as 3 points, linear hemorrhage with a length of 2-4 mm was scored as 4 points, linear hemorrhage with a length of >4 mm was scored as 5 points, and linear hemorrhage with a width of >1 mm was scored double points."}}, "note": "Bridge positions count the residues as written; N and C are the ends. Peptide text beside a SMILES is read from it."}
{"compound": "CC(C)C[C@H](NC(=O)[C@@H]1CCCN1C(=O)[C@H](C)NC(=O)[C@H](Cc1ccc(O)cc1)NC(=O)[C@H](CO)NC(=O)CNC(=O)[C@@H]1CSSC[C@H](NC(=O)[C@H](C)N)C(=O)N2CCC[C@H]2C(=O)N[C@@H](CC(N)=O)C(=O)N[C@@H](Cc2ccc(O)cc2)C(=O)N2CCC[C@H]2C(=O)N[C@@H](Cc2ccc(O)cc2)C(=O)N1)C(=O)NCC(=O)N[C@@H](Cc1ccc(O)cc1)C(=O)N[C@@H](Cc1c[nH]cn1)C(=O)N[C@H](C(=O)N[C@@H](CCCNC(=N)N)C(=O)N[C@@H](CCC(=O)O)C(=O)N[C@@H](Cc1ccc(O)cc1)C(=O)N1CCC[C@H]1C(=O)N[C@@H](C)C(=O)NCC(=O)N[C@H](C(=O)N[C@@H](CO)C(=O)N[C@@H](C)C(=O)N[C@@H](C)C(=O)O)C(C)C)C(C)C", "note": "[TRF7] (H-ACPNYPYCGSYAPLGYHVREYPAGVSAA-OH; disulfide 2-8)", "values": [{"measurement": "skin reactions in closed patch test", "setting": "skin of subjects", "result": "no adverse skin reactions observed"}]}
{"compound": "sucralfate", "values": [{"measurement": "Ulcer inde", "setting": "[1]", "result": "35.5 ± 8.7"}]}
